{"source": "patent US20090264388A1", "about": "“Compounds and Methods of Treating Disorders Associated With Activation of Metachromatic Cells” (Valorisation Recherche HSCM, Limited Partnership, priority 2006, published 2009)", "key": {"[1]": {"system": "RBL-2H3 cells", "experiment": "Cell viability by trypan blue exclusion test in RBL-2H3 cells", "type": "cell-based, rat", "details": "IgE-sensitized RBL-2H3 cells stimulated with DNP-BSA (FIG. 3)", "procedure": "The below experiments used the rat basophilic cells RBL-2H3 commercially available from the American Type Culture Collection (ATCC; Manassas, Va.) under accession number CRL-2256. RBL-2H3 cells were passively sensitized with mouse IgE anti-dinitrophenyl conjugated to bovine serum albumin (DNP-BSA) monoclonal antibody for 22 hours, and then stimulated with DNP-BSA (antigen) to induce cell degranulation (FIG. 1). To address the issue of an autocrine tachykinergic regulation of metachromatic cell degranulation in response to antigenic activation, IgE-sensitized RBL-2H3 cells were pre-treated with a selective NK-1 receptor antagonist prior to antigen stimulation."}, "[2]": {"system": "RBL-2H3 cells", "experiment": "Histamine immunoreactivity (intracellular histamine pools) in IgE-sensitized RBL-2H3 cells stimulated with DNP-BSA", "type": "cell-based, rat", "details": "pretreatment 10 μM; DNP-BSA 40 ng/ml", "excerpt": "Data analysis using the macro built under the Image-Pro Plus platform enabled the representation of the frequency distribution of the maximal intensity for histamine immunoreactivity into RBL-2H3 cells. We arbitrarily divided basophils into six subgroups according to the range of maximal fluorescence intensity detected into the cells, e.g., 300 to 499 IAU (intensity arbitrary unit) or 900-1100 IAU. […] Therefore, frequency distribution analyses confirmed the β-hexosaminidase data by showing that blocking NK-1 receptors inhibits FcεRI clustering-induced metachromatic cell degranulation."}, "[3]": {"molecular_target": "T1, NK-1 receptors (Homo sapiens, UniProt P25103)", "T1 construct": "expressed in transfected cells; host or cells: CHO cells", "T1 sequence (P25103 whole entry)": "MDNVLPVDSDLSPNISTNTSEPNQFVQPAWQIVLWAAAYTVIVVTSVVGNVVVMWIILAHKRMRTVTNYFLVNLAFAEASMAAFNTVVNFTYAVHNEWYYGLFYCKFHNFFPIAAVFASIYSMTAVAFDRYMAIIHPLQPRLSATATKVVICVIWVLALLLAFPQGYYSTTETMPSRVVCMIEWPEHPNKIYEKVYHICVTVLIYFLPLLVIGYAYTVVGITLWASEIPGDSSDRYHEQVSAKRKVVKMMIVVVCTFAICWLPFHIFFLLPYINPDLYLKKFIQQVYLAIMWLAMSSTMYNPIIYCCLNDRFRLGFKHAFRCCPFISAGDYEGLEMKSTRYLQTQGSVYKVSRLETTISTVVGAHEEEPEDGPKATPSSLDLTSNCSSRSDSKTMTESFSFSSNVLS", "details": "CHO cells expressing NK-1 receptors, cited from earlier work"}, "[4]": {"system": "RBL-2H3 cells", "experiment": "Calcium ionophore A23187-induced β-hexosaminidase release in RBL-2H3 cells", "type": "cell-based, rat", "procedure": "RBL-2H3 cells were stimulated with the calcium ionophore A23187 (SigmaAldrich #C7522) in a concentration-dependent manner to induce metachromatic cell degranulation FIG. 10). […] The maximal inhibition is obtained at the concentration of 10 μM of L-703,606 (FIG. 11)."}, "[5]": {"system": "RBL-2H3 cells", "experiment": "Antigen (DNP-BSA)-induced β-hexosaminidase release (degranulation) in IgE-sensitized RBL-2H3 cells", "type": "cell-based, rat", "details": "for blockade of IgE-dependent activation and degranulation of metachromatic cells, agent alone: antigen-induced maximal degranulation (FIG. 21-28); for effect on antigenic degranulation / β-hexosaminidase release: DNP-BSA 5 ng/ml and 40 ng/ml, antagonist concentration not stated", "excerpt": "The rat basophilic cell line RBL-2H3 is an art recognized model for studying the activation of metachromatic cells through FcεRI (Oliver et al., “Signal transduction and cellular response in RBL-2H3 mast cells,” Prog. Allergy 42:185-245, 1988).\nThe below experiments used the rat basophilic cells RBL-2H3 commercially available from the American Type Culture Collection (ATCC; Manassas, Va.) under accession number CRL-2256. RBL-2H3 cells were passively sensitized with mouse IgE anti-dinitrophenyl conjugated to bovine serum albumin (DNP-BSA) monoclonal antibody for 22 hours, and then stimulated with DNP-BSA (antigen) to induce cell degranulation (FIG. 1)."}, "[6]": {"system": "RBL-2H3 cells", "experiment": "Intracellular calcium changes (Fluo-3 AM, epifluorescence microscopy) in RBL-2H3 cells", "type": "cell-based, rat", "details": "Fluo-3 AM loaded cells (FIG. 12)"}, "[7]": {"molecular_target": "neurokinin-1 receptor (Homo sapiens, UniProt P25103)", "sequence (P25103 whole entry)": "as above", "details": "cited from earlier work"}, "[8]": {"molecular_target": "T2, neurokinin-1 receptor (Cavia porcellus, UniProt P30547)", "T2 construct": "pA2: 7.16 (guinea pig ileum); from tissue; host or cells: guinea pig ileum", "T2 sequence (P30547 whole entry)": "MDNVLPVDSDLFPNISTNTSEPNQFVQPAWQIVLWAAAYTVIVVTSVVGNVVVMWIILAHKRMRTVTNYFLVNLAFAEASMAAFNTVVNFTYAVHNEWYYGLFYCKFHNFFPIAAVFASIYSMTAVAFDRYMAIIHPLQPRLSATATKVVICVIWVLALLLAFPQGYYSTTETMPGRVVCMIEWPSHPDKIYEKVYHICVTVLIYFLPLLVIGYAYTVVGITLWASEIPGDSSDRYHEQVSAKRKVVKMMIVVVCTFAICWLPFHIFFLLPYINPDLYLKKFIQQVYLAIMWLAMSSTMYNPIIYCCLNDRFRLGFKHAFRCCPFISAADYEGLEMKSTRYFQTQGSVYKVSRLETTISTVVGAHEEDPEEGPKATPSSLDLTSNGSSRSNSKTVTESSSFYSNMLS", "details": "guinea pig ileum; cited from earlier work"}, "[9]": {"molecular_target": "T3, neurokinin-1 receptor (Rattus norvegicus, UniProt P14600)", "T3 construct": "from tissue; host or cells: rat brain", "T3 sequence (P14600 whole entry)": "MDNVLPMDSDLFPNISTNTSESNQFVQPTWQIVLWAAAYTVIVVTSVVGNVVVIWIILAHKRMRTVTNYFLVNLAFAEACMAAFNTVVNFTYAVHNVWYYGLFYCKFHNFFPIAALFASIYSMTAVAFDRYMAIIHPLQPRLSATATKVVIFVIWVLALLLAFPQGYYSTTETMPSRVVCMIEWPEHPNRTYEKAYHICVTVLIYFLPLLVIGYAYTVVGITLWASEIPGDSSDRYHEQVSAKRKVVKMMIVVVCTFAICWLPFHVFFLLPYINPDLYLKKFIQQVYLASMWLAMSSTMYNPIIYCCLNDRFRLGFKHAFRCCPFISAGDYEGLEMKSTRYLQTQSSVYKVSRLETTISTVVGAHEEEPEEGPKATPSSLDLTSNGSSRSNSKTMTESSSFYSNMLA", "details": "rat brain; cited from earlier work"}, "[10]": {"details": "antagonist 10 μM, DNP-BSA 5 ng/ml"}, "[11]": {"details": "antagonist 10 μM, DNP-BSA 40 ng/ml"}}, "note": "Entries after “also recorded” stand apart in the source; their conditions may differ. Structures can show the parent of a compound that is named as a salt. Where two headings read alike, the source gives them in different places."}
{"compound": "Ic1ccccc1CNC1C2CCN(CC2)C1C(c1ccccc1)c1ccccc1.O=C(O)C(=O)O", "note": "[L-703,606, cis-2-(Diphenylmethel)-N-([2-iodophenyl]methyl)-1-azabicyclo (2.2.2) octan-3-amine]", "values": [{"measurement": "cell viability (trypan blue exclusion)", "setting": "[1]", "value": "did not alter cell viability"}, {"measurement": "cell viability (trypan blue exclusion)", "setting": "[1]; listed as L-703,606 oxalate salt", "value": "not attributable to cell death"}, {"measurement": "depletion of histamine intracellular pools", "setting": "[2]", "value": "mostly abolished"}, {"measurement": "IC50", "setting": "[3]", "value": 2, "unit": "nM"}, {"measurement": "concentration giving maximal inhibition of calcium ionophore-induced degranulation", "setting": "[4]; calcium ionophore A23187", "value": 10, "unit": "µM"}, {"measurement": "inhibition of calcium ionophore-induced activation and degranulation", "setting": "[4]; calcium ionophore A23187 (FIG. 11)", "value": "inhibit, in a concentration-dependent manner"}, {"measurement": "effect on antigen-induced maximal degranulation", "setting": "[5]; L-703,606 5 μM alone, antigen 40 ng/ml", "value": "weak effect"}, {"measurement": "effect on inhibition by Tacrolimus of antigen-induced maximal cell degranulation", "setting": "[5]; L-703,606 10 μM, Tacrolimus 0.01 μM", "value": "potentiates"}, {"measurement": "effect on inhibition by cyclosporin A of antigen-induced maximal cell degranulation", "setting": "[5]; L-703,606 10 μM, cyclosporin A 0.1 μM", "value": "potentiates"}, {"measurement": "effect on inhibition by FTY720 of antigen-induced maximal cell degranulation", "setting": "[5]; L-703,606 1, 5 and 10 μM, FTY720 5 μM", "value": "potentiates"}, {"measurement": "effect on inhibition by BAY 61-3606 of antigen-induced maximal cell degranulation", "setting": "[5]; L-703,606 5 and 10 μM, BAY 61-3606 100 and 250 nM", "value": "potentiates"}, {"measurement": "effect on inhibition by LY-294,002 of antigen-induced maximal cell degranulation", "setting": "[5]; L-703,606 5 and 10 μM, LY-294,002 1 and 10 μM", "value": "potentiates"}, {"measurement": "effect on inhibition by PD98059 of antigen-induced maximal cell degranulation", "setting": "[5]; L-703,606 5 and 10 μM, PD98059 5, 10 and 25 μM", "value": "potentiates"}, {"measurement": "effect on inhibition by PP1 of antigen-induced maximal cell degranulation", "setting": "[5]; L-703,606 5 and 10 μM, PP1 1 and 5 μM", "value": "potentiates"}, {"measurement": "effect on inhibition by SB202190 of antigen-induced maximal cell degranulation", "setting": "[5]; L-703,606 5 and 10 μM, SB202190 10 and 25 μM", "value": "potentiates"}, {"measurement": "effect on antigen-induced 50% of cell degranulation", "setting": "[5]; [10]", "value": "completely abolished"}, {"measurement": "reduction of maximal antigenic degranulation response", "setting": "[5]; [11]", "value": "~50", "unit": "%"}, {"measurement": "inhibition of antigen-induced β-hexosaminidase release", "setting": "[5]; antagonist 1 to 10 μM, DNP-BSA 5 ng/ml or 40 ng/ml", "value": "concentration-dependent inhibition"}, {"measurement": "effect on basal release of β-hexosaminidase", "setting": "[5]; no antigen, data not shown", "value": "did not change"}, {"measurement": "most efficient inhibitory concentration for β-hexosaminidase release", "setting": "[5]; range tested 1 to 10 μM", "value": 10, "unit": "µM"}, {"measurement": "effect on calcium ionophore-induced calcium signals", "setting": "[6]", "value": "unlikely to be attributable to inhibition of calcium ionophore-induced extracellular calcium signals"}, {"measurement": "Kd", "setting": "[7]; 35% sites", "value": 1.5, "unit": "nM"}, {"measurement": "Kd", "setting": "[7]; 65% sites", "value": 0.04, "unit": "nM"}]}
{"compound": "CCCCCCCCc1ccc(CCC(N)(CO)CO)cc1.Cl", "note": "[FTY720]", "values": [{"measurement": "blockade of IgE-dependent activation and degranulation of metachromatic cells, agent alone", "setting": "[5]", "value": "potent blocker"}]}
{"compound": "FC(F)(F)c1cc(CO[C@@H]2CCCN[C@@H]2c2ccccc2)cc(C(F)(F)F)c1", "note": "[L-733,060, ((2S,3S)-3-[[3,5-bis (Trifluoromethyl)phenyl]methoxy]-2-phenylpiperidine hydrochloride]", "values": [{"measurement": "IC50", "setting": "[3]; read-out: IC50", "value": 1, "unit": "nM"}, {"measurement": "effect on antigen-induced 50% of cell degranulation", "setting": "[5]; [10]", "value": "completely abolished"}, {"measurement": "reduction of maximal antigenic degranulation response", "setting": "[5]; [11]", "value": "~55", "unit": "%"}]}
{"compound": "COc1ccc(-c2cc3nccn3c(Nc3ncccc3C(N)=O)n2)cc1OC", "note": "[BAY 61-3606]", "values": [{"measurement": "blockade of IgE-dependent activation and degranulation of metachromatic cells, agent alone", "setting": "[5]", "value": "potent blocker"}]}
{"compound": "Cl.O=c1cc(N2CCOCC2)oc2c(-c3ccccc3)cccc12", "note": "[LY-294,002]", "values": [{"measurement": "blockade of IgE-dependent activation and degranulation of metachromatic cells, agent alone", "setting": "[5]", "value": "potent blocker"}]}
{"compound": "Oc1ccc(-c2nc(-c3ccncc3)c(-c3ccc(F)cc3)[nH]2)cc1", "note": "[SB202190]", "values": [{"measurement": "blockade of IgE-dependent activation and degranulation of metachromatic cells, agent alone", "setting": "[5]", "value": "potent blocker"}]}
{"compound": "C[C@@H]1C[C@H]2[C@@H]3CCC4=CC(=O)C=C[C@]4(C)[C@@]3(F)[C@@H](O)C[C@]2(C)[C@@]1(O)C(=O)CO", "note": "[dexamethasone]", "values": [{"measurement": "reduction of maximal degranulation", "setting": "[5]; dexamethasone 10^−8 M alone, antigen 40 ng/ml", "value": 50, "unit": "%"}]}
{"compound": "COc1cc(C(=O)N2CC[C@](CCN3CCC(C(N)=O)(c4ccccc4)CC3)(c3ccc(Cl)c(Cl)c3)C2)cc(OC)c1OC", "note": "[MDL 105,212]", "values": [{"measurement": "effect on antigenic degranulation / β-hexosaminidase release", "setting": "[5]", "value": "lack of inhibition"}, {"measurement": "effect on cell degranulation induced by 40 ng/ml DNP-BSA", "setting": "[5]; antagonist 1 μM (but not 10 μM), DNP-BSA 40 ng/ml", "value": "significantly increased"}, {"measurement": "effect on antigen concentration leading to 50% of maximal degranulation", "setting": "[5]; antagonist at both 1 μM and 10 μM, DNP-BSA 5 ng/ml", "value": "had no effect"}]}
{"compound": "C=CC[C@@H]1/C=C(\\C)C[C@H](C)C[C@H](OC)[C@H]2O[C@@](O)(C(=O)C(=O)N3CCCC[C@H]3C(=O)O[C@H](/C(C)=C/[C@@H]3CC[C@@H](O)[C@H](OC)C3)[C@H](C)[C@@H](O)CC1=O)[C@H](C)C[C@@H]2OC", "note": "[Tacrolimus]", "values": [{"measurement": "blockade of IgE-dependent activation and degranulation of metachromatic cells, agent alone", "setting": "[5]", "value": "potent blocker"}]}
{"compound": "COc1cccc(-c2cc(=O)c3ccccc3o2)c1N", "note": "[PD98059]", "values": [{"measurement": "blockade of IgE-dependent activation and degranulation of metachromatic cells, agent alone", "setting": "[5]", "value": "potent blocker"}]}
{"compound": "COc1ccccc1CC(=N)N1C[C@@H]2C(=O)CCC(c3ccccc3)(c3ccccc3)[C@@H]2C1", "note": "[RP 67580, (3aR,7aR)-Octahydro-2-[1-imino-2-(2-methoxyphenyl)ethyl]-7,7-diphenyl-4H-isoindol]", "values": [{"measurement": "decrease of degranulation induced by 5 ng/ml DNP-BSA", "setting": "[5]; [10]", "value": "~50", "unit": "%"}, {"measurement": "effect on maximal antigenic degranulation", "setting": "[5]; [11]", "value": "no significant effect"}, {"measurement": "pA2", "setting": "[8]", "value": 7.16}, {"measurement": "IC50", "setting": "[9]", "value": 10, "unit": "nM"}]}
{"compound": "[D-Arg^1, D-Phe^5, D- Trp^7,9, Leu^11] substance P [Antagonist D]", "values": [{"measurement": "effect on antigenic degranulation / β-hexosaminidase release", "setting": "[5]", "value": "did not alter; also recorded: lack of inhibition"}, {"measurement": "Affinity (selectivity in words)", "setting": "[7]", "value": "Non-selective"}]}
